Target: T1, 5-hydroxytryptamine receptor 1A (Rattus norvegicus, UniProt P19327)
T1 sequence (P19327 whole entry): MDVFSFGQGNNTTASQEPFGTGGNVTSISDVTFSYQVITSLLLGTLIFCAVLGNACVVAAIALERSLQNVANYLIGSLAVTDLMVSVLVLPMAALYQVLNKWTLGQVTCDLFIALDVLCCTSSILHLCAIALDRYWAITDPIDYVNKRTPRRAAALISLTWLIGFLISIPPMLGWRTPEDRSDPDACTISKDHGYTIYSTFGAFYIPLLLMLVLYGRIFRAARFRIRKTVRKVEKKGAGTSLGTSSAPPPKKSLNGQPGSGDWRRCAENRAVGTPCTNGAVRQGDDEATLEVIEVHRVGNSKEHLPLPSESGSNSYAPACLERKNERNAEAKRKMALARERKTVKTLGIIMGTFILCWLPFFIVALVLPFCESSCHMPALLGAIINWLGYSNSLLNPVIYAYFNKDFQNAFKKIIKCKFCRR
Test: Inhibitory affinity constant against 5-hydroxytryptamine 1A receptor

CC1(C)CC(=O)N(CCCCN2CCN(c3ccc4ccccc4n3)CC2)C(=O)C1
Ki: 10.5 nM
